Reference: patent publication US8841483B2, “Compositions useful as inhibitors of voltage-gated sodium channels” (Vertex Pharmaceuticals Incorporated, priority 2006, dated 2014)

Each molecule was assayed against NaV1.8 (Homo sapiens, UniProt Q9Y5Y9) (assay: Activity against NaV 1.8 channel (Table 3), optical membrane potential / electrophysiology assays).
Type: cell-based
Method: Compounds of the invention are useful as antagonists of voltage-gated sodium ion channels. Antagonist properties of test compounds were assessed as follows. Cells expressing the NaV of interest were placed into microtiter plates. After an incubation period, the cells were stained with fluorescent dyes sensitive to the transmembrane potential. The test compounds were added to the microtiter plate. The cells were stimulated with either a chemical or electrical means ti evoke a NaV dependent membrane potential change from unblocked channels, which was detected and measured with trans-membrane potential-sensitive dyes. Antagonists were detected as a decreased membrane potential response to the stimulus. The optical membrane potential assay utilized voltage-sensitive FRET sensors described by Gonzalez and Tsien (See, Gonzalez, J. E. and R. Y. Tsien (1995) “Voltage sensing by fluorescence resonance energy transfer in single cells” Biophys J 69(4): 1272-80, and Gonzalez, J. E. and R. Y. Tsien (1997) “Improved indicators of cell membrane potential that use fluorescence resonance energy transfer” Chem Biol 4(4): 269-77) in combination with instrumentation for measuring fluorescence changes such as the Voltage/Ion Probe Reader (VIPR®) (See, Gonzalez, J. E., K. Oades, et al. (1999) “Cell-based assays and instrumentation for screening ion-channel targets” Drug Discov Today 4(9): 431-439).
The following is an example of how NaV1.3 inhibition activity is measured using the optical membrane potential method #2. Other subtypes are performed in an analogous mode in a cell line expressing the NaV of interest.
HEK293 cells stably expressing NaV1.3 are plated into 96-well microtiter plates. After an appropriate incubation period, the cells are stained with the voltage sensitive dyes CC2-DMPE/DiSBAC2(3) as follows.
2X CC2-DMPE=20 μM CC2-DMPE: 10 mM CC2-DMPE is vortexed with an equivalent volume of 10% pluronic, followed by vortexing in required amount of HBSS containing 10 mM HEPES. Each cell plate will require 5 mL of 2X CC2-DMPE. 50 μL of 2X CC2-DMPE is to wells containing washed cells, resulting in a 10 μM final staining concentration. The cells are stained for 30 minutes in the dark at RT.
2X DISBAC2(3) with ABSC1=6 μM DISBAC2(3) and 1 mM ABSC1: The required amount of 10 mM DISBAC2(3) is added to a 50 ml conical tube and mixed with 1 μL 10% pluronic for each mL of solution to be made and vortexed together. Then HBSS/HEPES is added to make up 2X solution. Finally, the ABSC1 is added.
The 2X DiSBAC2(3) solution can be used to solvate compound plates. Note that compound plates are made at 2X drug concentration. Wash stained plate again, leaving residual volume of 50 μL. Add 50 uL/well of the 2X DiSBAC2(3) w/ABSC1. Stain for 30 minutes in the dark at RT.
The electrical stimulation instrument and methods of use are described in ION Channel Assay Methods PCT/US01/21652, herein incorporated by reference. The instrument comprises a microtiter plate handler, an optical system for exciting the coumarin dye while simultaneously recording the coumarin and oxonol emissions, a waveform generator, a current- or voltage-controlled amplifier, and a device for inserting electrodes in well. Under integrated computer control, this instrument passes user-programmed electrical stimulus protocols to cells within the wells of the microtiter plate.
Assay Protocol • 1. Insert or use electrodes into each well to be assayed. • 2. Use the current-controlled amplifier to deliver stimulation wave pulses for 3 s. Two seconds of pre-stimulus recording are performed to obtain the un-stimulated intensities. Five seconds of post-stimulation recording are performed to examine the relaxation to the resting state.
Data are analyzed and reported as normalized ratios of background-subtracted emission intensities measured in the 460 nm and 580 nm channels. Background intensities are then subtracted from each assay channel. […]

IC50 [µM] | SMILES
> 10 | CN(C(=O)c1ccc(C(C)(C)C)cc1)c1cccc(S(N)(=O)=O)c1 [Compound 90, 4-tert-Butyl-N-methyl-N-(3-(aminosulfonyl)phenyl)benzamide]
> 10 | COc1cc(C)c(S(N)(=O)=O)cc1NC(=O)c1ccc(C(C)(C)C)cc1 [Compound 43]
> 10 | CC(C)COC(=O)N1CCN(c2ccccc2C(=O)Nc2cccc(S(N)(=O)=O)c2)CC1 [Compound 45]
> 10 | CC(=O)c1cccc(Nc2ccccc2C(=O)Nc2cccc(S(N)(=O)=O)c2)c1 [Compound 36]
> 10 | CCCc1ccc(C(=O)Nc2cccc(S(N)(=O)=O)c2)cc1 [Compound 66]
< 2 | NS(=O)(=O)c1cccc(NC(=O)c2ccccc2Cc2ccccc2)c1 [Compound 7]
< 2 | CC(C)(C)c1ccc(C(=O)Nc2cccc(S(N)(=O)=O)c2)c(Br)c1 [Compound 93]
> 10 | Cc1ccc(C(=O)Nc2cccc(S(N)(=O)=O)c2)c(Br)c1 [Compound 142]
> 10 | COc1ccc(C(=O)Nc2cccc(S(N)(=O)=O)c2)c(C)c1 [Compound 141]
< 2 | Cc1ncccc1Oc1cc(C(F)(F)F)ccc1C(=O)Nc1cccc(S(N)(=O)=O)c1 [Compound 138, 2-(2-methylpyridin-3-yloxy)-N-(3-sulfamoylphenyl)-4-(trifluoromethyl)benzamide]
< 2 | CC(C)(C)c1ccc(C(=O)Nc2cccc(S(N)(=O)=O)c2)c(Oc2ccc(Cl)cc2Cl)c1 [Compound 113]
> 10 | NS(=O)(=O)c1cccc(NC(=O)c2ccc(C(F)(F)F)cc2C(F)(F)F)c1 [Compound 81]
> 10 | NS(=O)(=O)c1cccc(NC(=O)c2ccc(-c3ncns3)cc2)c1 [Compound 49]
> 10 | CN(C)c1ccccc1C(=O)Nc1cccc(S(N)(=O)=O)c1 [Compound 44]
2 to 10 | NS(=O)(=O)c1cccc(NC(=O)c2ccccc2Nc2cccnc2)c1 [Compound 27]
> 10 | NS(=O)(=O)c1cccc(NC(=O)c2cccc(OC(F)(F)F)c2)c1 [Compound 74]
< 2 | NS(=O)(=O)c1cccc(NC(=O)c2ccccc2C2CCCCC2)c1 [Compound 83, 2-Cyclohexyl-N-(3-(aminosulfonyl)phenyl)benzamide]
< 2 | Cc1ccccc1Oc1cc(C(C)(C)C)ccc1C(=O)Nc1cccc(S(N)(=O)=O)c1 [Compound 55]
> 10 | NS(=O)(=O)c1cccc(NC(=O)c2cccc(N3CCNC3=O)c2)c1 [Compound 86]
> 10 | Cc1ccc(S(N)(=O)=O)cc1NC(=O)c1ccc(Cl)cc1[N+](=O)[O-] [Compound 41]
> 10 | COc1cc(Cl)ccc1C(=O)Nc1cccc(S(N)(=O)=O)c1 [Compound 140]

IC50 [µM] | SMILES
> 10 | COC(=O)c1ccc(C(=O)Nc2cccc(S(N)(=O)=O)c2)cc1 [Compound 37]
< 2 | Cc1ccc(Oc2cc(C(C)(C)C)ccc2C(=O)Nc2cccc(S(N)(=O)=O)c2)cn1 [Compound 144]
> 10 | Cc1ccc(C(=O)Nc2cccc(S(N)(=O)=O)c2)cc1 [Compound 38]
> 10 | NS(=O)(=O)c1cccc(NC(=O)c2ccc3c(c2)OCO3)c1 [Compound 32]
< 2 | CC(C)(C)c1ccc(C(=O)Nc2cccc(S(N)(=O)=O)c2)c(Oc2ccc(F)cc2Cl)c1 [Compound 101]
2 to 10 | CC(C)(C)c1ccc(C(=O)Nc2cccc(S(N)(=O)=O)c2)c(S(=O)(=O)c2ccccc2)c1 [Compound 112, 4-tert-Butyl-2-(phenylsulfonyl)-N-(3-sulfamoylphenyl)benzamide]
> 10 | CC(C)(C)c1ccc(C(=O)Nc2cc(S(N)(=O)=O)ccc2Cl)cc1 [Compound 87]
2 to 10 | CC(C)(C)c1ccc(C(=O)Nc2cccc(S(N)(=O)=O)c2)c(Oc2ccccc2C#N)c1 [Compound 111]
> 10 | NS(=O)(=O)c1cccc(NC(=O)c2ccc(C(F)(F)F)cc2)c1 [Compound 8]
< 2 | NS(=O)(=O)c1cccc(NC(=O)c2ccccc2Oc2ccccc2N2CCCCC2)c1 [Compound 53, 2-(2-(Piperidin-1-yl)phenoxy)-N-(3-(aminosulfonyl)phenyl)benzamide]
> 10 | COc1ccc(C(=O)Nc2cccc(S(N)(=O)=O)c2)c(OC)c1 [Compound 123]
> 10 | NS(=O)(=O)c1cccc(NC(=O)c2ccc(SC(F)(F)F)cc2)c1 [Compound 60]
< 2 | CC(C)(C)c1ccc(C(=O)Nc2cccc(S(N)(=O)=O)c2)c(Oc2ccccc2N2CCCCC2)c1 [Compound 97]
> 10 | CC(C)(C)c1ccc(C(=O)Nc2cccc(S(N)(=O)=O)c2)c(Oc2cc(C(F)(F)F)ncn2)c1 [Compound 129]
< 2 | CC(C)Cc1ccc(C(=O)Nc2cccc(S(N)(=O)=O)c2)cc1 [Compound 80]
< 2 | CCOc1cc(C(C)(C)C)ccc1C(=O)Nc1cccc(S(N)(=O)=O)c1 [Compound 103]
> 10 | Cc1cc(Cl)ccc1C(=O)Nc1cccc(S(N)(=O)=O)c1 [Compound 29]
< 2 | CC(C)(C)c1ccc(C(=O)Nc2ccc(Cl)c(S(N)(=O)=O)c2)cc1 [Compound 79]
> 10 | N#Cc1ccc(C(=O)Nc2cccc(S(N)(=O)=O)c2)cc1 [Compound 52]
> 10 | COc1ccccc1C(=O)Nc1cccc(S(N)(=O)=O)c1 [Compound 85]
> 10 | NS(=O)(=O)c1cccc(NC(=O)c2ccccc2Oc2cccc(N3CCOCC3)c2)c1 [Compound 89]

IC50 [µM] | SMILES
> 10 | NS(=O)(=O)c1cccc(NC(=O)c2cccc(-n3cccn3)c2)c1 [Compound 73]
> 10 | NS(=O)(=O)c1cccc(NC(=O)c2cccc(C(F)(F)F)c2)c1 [Compound 35]
2 to 10 | CNS(=O)(=O)c1cccc(NC(=O)c2ccc(C(C)(C)C)cc2)c1 [Compound 14]
> 10 | Cc1ccccc1C(=O)Nc1cccc(S(N)(=O)=O)c1 [Compound 69]
< 2 | CC(C)(C)c1ccc(C(=O)Nc2cccc(S(N)(=O)=O)c2)c(Oc2ccccc2)c1 [Compound 1]
> 10 | CCc1ccccc1C(=O)Nc1cccc(S(N)(=O)=O)c1 [Compound 137]
> 10 | CCCOc1ccccc1C(=O)Nc1cccc(S(N)(=O)=O)c1 [Compound 131]
> 10 | NS(=O)(=O)c1cccc(NC(=O)c2ccc(Cl)cc2Br)c1 [Compound 70]
< 2 | CC(C)(C)c1ccc(C(=O)Nc2cccc(S(N)(=O)=O)c2)c(Oc2ccccc2N2CCOCC2)c1 [Compound 98]
> 10 | Cc1cc(C)c(S(N)(=O)=O)cc1NC(=O)c1ccc(C(C)(C)C)cc1 [Compound 25]
< 2 | CC(C)(C)c1ccc(C(=O)Nc2cccc(S(N)(=O)=O)c2)c(Oc2cccc(F)c2)c1 [Compound 132]
< 2 | Cc1ncccc1Oc1cc(C(C)(C)C)ccc1C(=O)Nc1cccc(S(N)(=O)=O)c1 [Compound 114]
> 10 | Cc1c(Cl)cc(S(N)(=O)=O)cc1NC(=O)c1ccc(C(C)(C)C)cc1 [Compound 46]
> 10 | CCOc1ccc(C(=O)Nc2cccc(S(N)(=O)=O)c2)c(OCC)c1 [Compound 117]
> 10 | COc1ccc(C(=O)Nc2cccc(S(N)(=O)=O)c2)cc1C(F)(F)F [Compound 42]
> 10 | CC(C)(C)c1cccc(Nc2ccccc2C(=O)Nc2cccc(S(N)(=O)=O)c2)c1 [Compound 26]
> 10 | CC(=O)c1ccccc1C(=O)Nc1cccc(S(N)(=O)=O)c1 [Compound 122]
< 2 | CC(C)(C)c1ccc(C(=O)Nc2cccc(S(N)(=O)=O)c2)c(Oc2ccccc2C(F)(F)F)c1 [Compound 104]
> 10 | NS(=O)(=O)c1cccc(NC(=O)c2ccccc2-n2cccc2)c1 [Compound 4]
< 2 | CC(C)(C)c1ccc(C(=O)Nc2cccc(S(N)(=O)=O)c2)cc1 [Compound 67]
